Consider 1 molecule from US20200222400A1, “METHODS FOR THE TREATMENT OF NEUROLOGICAL DISORDERS” (Yumanity Therapeutics, Inc., priority 2019, published 2020).

The structures appear in SMILES notation.

The subject of test [1] is rat cortical neurons transfected with alpha-synuclein A53T. Put plainly: Neurite degeneration assay. It counts as cell-based. Here is the method:
Rat primary cortical neurons cultured in 96-well plates (Greiner Bio-One) were co-transfected with a fluorescence reporter plasmid (encoding mKate2) and empty or alpha-synuclein-A53T overexpression plasmids by lipofection at 5-6 div (days in vitro). LIPOFECTAMINE® 2000 transfection reagent (Thermo Fisher) (0.5 μl/well) was diluted in NEUROBASAL® media (Thermo Fisher) and incubated for 5-10 min. The LIPOFECTAMINE®/NEUROBASAL® mixture was then added dropwise to a plasmid cocktail diluted in NEUROBASAL® media, and incubated for approximately 40 min. During this time, conditioned media on the neurons was replaced with media containing 1× kynurenic Acid (Sigma-Aldrich) in NEUROBASAL® media (NBKY). LIPOFECTAMINE®/DNA complex solutions were subsequently added dropwise to neurons in the NBKY media in the 96-well plate. Lipofection was carried out for 30-40 min in a standard cell culture incubator (37° C., 5% CO2). Neurons were then washed with NEUROBASAL® media, and 50% conditioned/50% fresh NEUROBASAL® media containing B-27 supplement and GlutaMax™ (Thermo Fisher) (NBM) was applied to the cultures.
Transfected rat cortical neuron cultures were treated with DMSO or CAY10566 compound 4-6 h post-transfection. […] Neurite lengths of transfected neurons were tracked by an RFP reporter, mKate2, and measured by NeuroTrack™ Software Module (Essen Bioscience). […]

Test [2] relates to A53T α-synuclein transfected human iPSC-derived neurons. Put plainly: Neuron survival assay, A53T α-synuclein transfected human iPSC-derived neurons. As to conditions: all tested concentrations, 3 μM to 0.3 μM, relative to DMSO. The test is classed as cell-based. Here is the method:
Transfected neuronal cultures were imaged at 12-24 h intervals for the indicated number of days by robotic microscopy. Fluorescence images were acquired with a Nikon Eclipse Ti microscope equipped with a motorized stage, 20× extra-long working distance (ELWD) objective, and an Andor Zyla cMOS camera. During image acquisition, microplates were enclosed in an on-stage environmental chamber controlling temperature, CO2, and humidity (Okolab). Images were processed and analyzed with custom-made scripts in R and ImageJ software. The lifetimes of individual neurons were determined by tracking fluorescently-labeled neurons in ImageJ. Neuronal death was determined to occur upon incidence of RFP signal loss or rupture of cell body. Cox proportional hazards analysis was used to generate cumulative hazard plots and determine the risk of neuron death. Log-rank test was used to determine statistical significance of survival curve divergence between neuron cohorts.
A model of α-synuclein toxicity utilizing transient transfection into human iPSC-derived neurons was developed. […] This model was utilized to evaluate the role of SCD in α-synuclein-dependent neuronal toxicity. Human iPSC-derived neurons were transfected with a construct encoding A53T α-synuclein or an empty vector control. […]

The test system of test [3] is alpha-synuclein transfected U2OS cells. In words: U2OS ATP assay (alpha-synuclein toxicity). The conditions noted are these: 72 h, titration. It counts as cell-based, human. The method, then: U2OS cells were trypsinized using 0.25% trypsin-EDTA (Thermo Fisher) for 5 min at 37° C. followed by centrifugation at 800 rpm for 5 min at room temperature. Cell pellets were re-suspended in SE solution (Lonza Biologics, Inc.) at a density of […]. Alpha-synuclein wild-type or empty control (pcDNA) plasmids were transfected at a ratio of […] per 1,000,000 cells. For genetic modifier studies, mRab1a was titrated at various concentrations in the presence of SNCA plasmids. Nucleofection was performed using 4D-NUCLEOFECTOR™ System (Lonza Biosciences, Inc.) under program code CM130 in either 20 μL Nucleocuvette™ strips or 100 μl single Nucleocuvettes™. Cells recovered at room temperature for 10-15 minutes after nucleofection before further handling. Pre-warmed medium was added and cells were thoroughly but gently mixed to a homogenous suspension before plating. Cells were seeded at 2×10^4 cells/100 μl/well into 96 well PLD-coated white plates (Corning, Inc.) using a customized semi-automated pipetting program (VIAFLO 384/96, Integra Biosciences).
Powders of reference SCD inhibitors (CAY10566, A939572 and MF-438) were resuspended and serial diluted in DMSO. […] ATP content was then measured using the CellTiter-Glo® kit (Promega) with luminescence signals measured on an EnVision multimode plate reader (Perkin Elmer).

Regarding `Cc1nnc(-c2ccc(N3CCC(Oc4cc(F)ccc4Cl)CC3)nn2)o1` [CAY10566], the “neurite degeneration at highest concentrations” value in test [1] (10 nM and 3 nM) is “complete rescue”. For the same molecule, the neurite degeneration entry in test [1] (titration, tracked every 6 h for 7 d, relative to DMSO) is recorded as “concentration-dependent decrease in neurite degeneration”. Also, the “risk of neuron death” value in test [2] is “significantly reduced”. Also, the “cellular ATP levels” value in test [3] is given as “significantly reversed alpha-synuclein-dependent decreases in ATP levels in a concentration-dependent fashion”.
